Where two headings read alike, the source gives them in different places.
Columns and labels:
HDAC2 = HDAC2 (Homo sapiens, UniProt Q92769); experiment: HDAC enzyme inhibitory activity, FRET method; format: biochemical; details: read-out: IC50 HDAC2
Procedure: (§1) The compounds of the present disclosure were assayed for enzyme inhibitory activity against various subtypes of HDAC enzymes by the FRET method. The various subtypes of HDAC enzymes were obtained either through purification or direct purchase of assay kits.
(§2) The specific method was as follows: The enzyme was added to a 384-well plate, and a reaction buffer was added to the control well. Serially diluted DMSO sample solutions were added to the reaction wells, and the plate was incubated at room temperature for 15 min. Then a chromogenic agent was added to stop the reaction, and fluorescence was generated. The fluorescence intensity was measured using an EnVision multi-label microplate reader (excitation: 355 nm, emission: 460 nm). The endpoint value was read after the color development reached stability. The inhibition IC50 of the compounds was calculated using GraphPad Prism4 software relative to DMSO.

HDAC3 = HDAC3 (Homo sapiens, UniProt O15379); experiment: HDAC enzyme inhibitory activity, FRET method; format: biochemical; details: read-out: IC50 HDAC3
Procedure: as §1, §2

HDAC1 = HDAC1 (Homo sapiens, UniProt Q13547); experiment: HDAC enzyme inhibitory activity, FRET method; format: biochemical; details: read-out: IC50 HDAC1
Procedure: as §1, §2

[1] = Stability in liver microsomes; format: in vitro ADME; details: for half-life at 1 µM: 1 µM compound, 37 °C, NADPH regeneration system
Procedure: After the 1 µM compound was individually incubated at 37 °C for various durations with […] liver microsomes from humans, monkeys, beagles, rats, or mice in the presence of an NADPH regeneration system, LC-MS-MS was used to analyze the remaining amount of the compound, and T1/2 was calculated. Table 10. Evaluation results of stability of compounds of the present disclosure in human and mouse liver microsomes

HDAC3, sequence (O15379 whole entry, species assumed): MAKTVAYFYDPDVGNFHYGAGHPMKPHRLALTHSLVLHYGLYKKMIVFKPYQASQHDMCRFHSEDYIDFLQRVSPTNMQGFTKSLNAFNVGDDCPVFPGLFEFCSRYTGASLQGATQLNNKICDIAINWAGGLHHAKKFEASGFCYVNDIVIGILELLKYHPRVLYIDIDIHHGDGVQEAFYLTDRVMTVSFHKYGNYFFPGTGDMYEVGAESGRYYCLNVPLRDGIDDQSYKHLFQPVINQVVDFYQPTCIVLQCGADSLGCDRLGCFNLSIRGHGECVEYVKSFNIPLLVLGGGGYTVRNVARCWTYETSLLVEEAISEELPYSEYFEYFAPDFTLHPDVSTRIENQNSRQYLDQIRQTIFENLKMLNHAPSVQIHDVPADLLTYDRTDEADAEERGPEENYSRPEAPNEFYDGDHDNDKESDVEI
HDAC3, sequence (Q9Y618 395-489 partner limits assumed, species assumed): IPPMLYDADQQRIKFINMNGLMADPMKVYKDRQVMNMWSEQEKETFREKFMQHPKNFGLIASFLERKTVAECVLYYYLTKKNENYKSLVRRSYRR
HDAC2, sequence (Q92769 whole entry, species assumed): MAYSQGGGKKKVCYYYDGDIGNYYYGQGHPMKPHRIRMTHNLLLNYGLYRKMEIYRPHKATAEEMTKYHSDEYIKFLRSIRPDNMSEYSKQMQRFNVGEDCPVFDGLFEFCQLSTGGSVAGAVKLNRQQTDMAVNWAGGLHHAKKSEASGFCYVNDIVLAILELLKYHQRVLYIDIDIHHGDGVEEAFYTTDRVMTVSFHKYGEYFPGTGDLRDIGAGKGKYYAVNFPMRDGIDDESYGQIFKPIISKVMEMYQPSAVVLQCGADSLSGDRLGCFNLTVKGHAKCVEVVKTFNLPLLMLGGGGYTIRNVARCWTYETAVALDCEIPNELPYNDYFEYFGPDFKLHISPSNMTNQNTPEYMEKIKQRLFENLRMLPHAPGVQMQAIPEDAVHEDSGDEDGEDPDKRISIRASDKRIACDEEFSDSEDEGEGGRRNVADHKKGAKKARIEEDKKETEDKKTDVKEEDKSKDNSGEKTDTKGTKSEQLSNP
HDAC1, sequence (Q13547 whole entry, species assumed): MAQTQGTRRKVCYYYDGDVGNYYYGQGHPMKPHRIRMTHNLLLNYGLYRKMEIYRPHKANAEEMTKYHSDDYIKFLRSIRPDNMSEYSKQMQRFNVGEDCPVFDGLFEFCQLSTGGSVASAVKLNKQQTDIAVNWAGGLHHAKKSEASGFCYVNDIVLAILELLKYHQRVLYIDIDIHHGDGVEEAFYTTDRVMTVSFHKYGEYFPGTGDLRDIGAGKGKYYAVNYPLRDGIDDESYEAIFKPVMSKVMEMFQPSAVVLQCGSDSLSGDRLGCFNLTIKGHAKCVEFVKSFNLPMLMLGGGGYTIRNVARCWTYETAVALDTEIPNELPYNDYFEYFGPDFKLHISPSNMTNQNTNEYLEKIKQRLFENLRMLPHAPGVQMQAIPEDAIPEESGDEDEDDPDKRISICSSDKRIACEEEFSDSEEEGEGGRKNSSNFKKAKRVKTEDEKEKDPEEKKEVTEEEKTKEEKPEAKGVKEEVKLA

Row | Structure (SMILES) | IC50 (HDAC2; Table 4) [nM] | IC50 (HDAC3; Table 4) [nM] | IC50 (HDAC1; Table 4) [nM] | further results
1 | CS(C)(=O)=Nc1ccc(C(=O)Nc2cc(-c3ccccc3)ccc2N)cc1 [Compound 2] | < 500 | > 5000 | < 500 | 
2 | CS(C)(=O)=Nc1ccc(C(=O)Nc2cc(-c3ccc(Cl)cc3)ccc2N)cc1 [Compound 3] | < 500 | > 5000 | < 500 | IC50 (HDAC2; Table 5): 30 to 300 nM; IC50 (HDAC3; Table 5): > 3000 nM; CLint scaled at 1 µM ([1]; Human liver microsomes): 1.85 mL/min/kg; Clliver ([1]; Human liver microsomes): 1.70 mL/min/kg; half-life at 1 µM ([1]; Human liver microsomes): 15.7 h; CLint scaled at 1 µM ([1]; Mouse liver microsomes): 17.8 mL/min/kg; Clliver ([1]; Mouse liver microsomes): 14.87 mL/min/kg; half-life at 1 µM ([1]; Mouse liver microsomes): 5.11 h; IC50 (HDAC1; Table 5): < 30 nM
3 | CS(C)(=O)=Nc1ccc(C(=O)Nc2cc(-c3ccc(C#N)cc3)ccc2N)cc1 [Compound 4] | < 500 | > 5000 | < 500 | 
4 | COC(=O)c1ccc(-c2ccc(N)c(NC(=O)c3ccc(N=S(C)(C)=O)cc3)c2)cc1 [Compound 5] | 500 to 5000 | > 5000 | < 500 | 
5 | CP(C)(=O)c1ccc(-c2ccc(N)c(NC(=O)c3ccc(N=S(C)(C)=O)cc3)c2)cc1 [Compound 6] | 500 to 5000 | > 5000 | 500 to 5000 | 
6 | CS(C)(=O)=Nc1ccc(C(=O)Nc2cc(-c3ccc(C(F)(F)F)cc3)ccc2N)cc1 [Compound 7] | < 500 | > 5000 | < 500 | 
7 | CS(C)(=O)=Nc1ccc(C(=O)Nc2cc(-c3ccc(C4CC4)cc3)ccc2N)cc1 [Compound 8] | 500 to 5000 | > 5000 | 500 to 5000 | 
8 | COc1ccc(-c2ccc(N)c(NC(=O)c3ccc(N=S(C)(C)=O)cc3)c2)cc1 [Compound 9] | < 500 | > 5000 | < 500 | 
9 | CS(C)(=O)=Nc1ccc(C(=O)Nc2cc(-c3ccc(F)cc3F)ccc2N)cc1 [Compound 10] | < 500 | > 5000 | < 500 | 
10 | CNC(=O)c1ccc(-c2ccc(N)c(NC(=O)c3ccc(N=S(C)(C)=O)cc3)c2)cc1 [Compound 11] | < 500 | > 5000 | < 500 | 
11 | [2H]c1ccc(-c2ccc(N)c(NC(=O)c3ccc(N=S(C)(C)=O)cc3)c2)cc1 [Compound 12] | < 500 | > 5000 | < 500 | 
12 | CS(C)(=O)=Nc1ccc(C(=O)Nc2cc(-c3ccncc3)ccc2N)cc1 [Compound 13] | < 500 | > 5000 | < 500 | 
13 | CS(C)(=O)=Nc1ccc(C(=O)Nc2cc(-c3ccccn3)ccc2N)cc1 [Compound 14] | < 500 | > 5000 | < 500 | 
14 | CS(C)(=O)=Nc1ccc(C(=O)Nc2cc(-c3cccnc3)ccc2N)cc1 [Compound 15] | < 500 | > 5000 | < 500 | 
15 | CS(C)(=O)=Nc1ccc(C(=O)Nc2cc(-c3ccncn3)ccc2N)cc1 [Compound 16] | < 500 | > 5000 | < 500 | 
16 | CS(C)(=O)=Nc1ccc(C(=O)Nc2cc(-c3cncnc3)ccc2N)cc1 [Compound 17] | < 500 | > 5000 | < 500 | 
17 | CS(C)(=O)=Nc1ccc(C(=O)Nc2cc(-c3ncccn3)ccc2N)cc1 [Compound 18] | < 500 | > 5000 | < 500 | 
18 | CS(C)(=O)=Nc1ccc(C(=O)Nc2cc(-c3ccc(F)cn3)ccc2N)cc1 [Compound 19] | < 500 | > 5000 | < 500 | 
19 | CS(C)(=O)=Nc1ccc(C(=O)Nc2cc(-c3ccco3)ccc2N)cc1 [Compound 20] | < 500 | > 5000 | < 500 | 
20 | CS(C)(=O)=Nc1ccc(C(=O)Nc2cc(-c3ccc(F)cc3)ccc2O)cc1 [Compound 41] | 500 to 5000 | > 5000 | < 500 | 
21 | CS(C)(=O)=Nc1ccc(C(=O)Nc2cc(-c3ccc(F)s3)ccc2O)cc1 [Compound 42] | < 500 | > 5000 | < 500 | 
22 | CS(C)(=O)=Nc1ccc(C(=O)Nc2cc(-c3ccc(F)cc3)c(F)cc2N)cc1 [Compound 43] | < 500 | > 5000 | < 500 | 
23 | CS(C)(=O)=Nc1ccc(C(=O)Nc2cc(-c3cccs3)c(F)cc2N)cc1 [Compound 44] | < 500 | > 5000 | < 500 | 
24 | CS(C)(=O)=NC1CCC(C(=O)Nc2cc(-c3ccc(F)cc3)ccc2N)CC1 (stereo not drawn) [Compound 45] | < 500 | > 5000 | < 500 | 
25 | CS(C)(=O)=NC1CCC(C(=O)Nc2cc(-c3ccc(F)s3)ccc2N)CC1 (stereo not drawn) [Compound 47] | < 500 | > 5000 | < 500 | 

Row | Structure (SMILES) | IC50 (HDAC2; Table 4) [nM] | IC50 (HDAC3; Table 4) [nM] | IC50 (HDAC1; Table 4) [nM] | further results
26 | CS(C)(=O)=NC1CCC(C(=O)Nc2cc(-c3ccc(Cl)s3)ccc2N)CC1 (stereo not drawn) [Compound 48] | < 500 | > 5000 | < 500 | 
27 | Nc1ccc(-c2ccc(F)cc2)cc1NC(=O)c1ccc(N=S2(=O)CCC2)cc1 [Compound 53] |  |  |  | IC50 (HDAC2; Table 5): 30 to 300 nM; IC50 (HDAC3; Table 5): > 3000 nM; IC50 (HDAC1; Table 5): < 30 nM
28 | Nc1ccc(-c2ccc(F)cc2)cc1NC(=O)c1ccc(N=S2(=O)CC3(CCC3)C2)cc1 [Compound 54] |  |  |  | IC50 (HDAC2; Table 5): 30 to 300 nM; IC50 (HDAC3; Table 5): > 3000 nM; IC50 (HDAC1; Table 5): < 30 nM
29 | Nc1ccc(-c2ccc(F)cc2)cc1NC(=O)c1ccc(N=S2(=O)CC3(CNC3)C2)cc1 [Compound 55] |  |  |  | IC50 (HDAC2; Table 5): 30 to 300 nM; IC50 (HDAC3; Table 5): > 3000 nM; IC50 (HDAC1; Table 5): < 30 nM
30 | CN1CC2(C1)CS(=O)(=Nc1ccc(C(=O)Nc3cc(-c4ccc(F)cc4)ccc3N)cc1)C2 [Compound 56] |  |  |  | IC50 (HDAC2; Table 5): 30 to 300 nM; IC50 (HDAC3; Table 5): > 3000 nM; IC50 (HDAC1; Table 5): < 30 nM
31 | Nc1ccc(-c2ccc(F)cc2)cc1NC(=O)c1ccc(N=S2(=O)CCCCC2)cc1 [Compound 58] |  |  |  | IC50 (HDAC2; Table 5): 30 to 300 nM; IC50 (HDAC3; Table 5): > 3000 nM; IC50 (HDAC1; Table 5): < 30 nM
32 | CCS(=O)(CC)=Nc1ccc(C(=O)Nc2cc(-c3ccc(F)cc3)ccc2N)cc1 [Compound 59] |  |  |  | IC50 (HDAC2; Table 5): 30 to 300 nM; IC50 (HDAC3; Table 5): > 3000 nM; IC50 (HDAC1; Table 5): < 30 nM
33 | Nc1ccc(-c2ccc(F)cc2)cc1NC(=O)c1ccc(N=S2(=O)CCOCC2)cc1 [Compound 60] |  |  |  | IC50 (HDAC2; Table 5): 30 to 300 nM; IC50 (HDAC3; Table 5): > 3000 nM; IC50 (HDAC1; Table 5): < 30 nM
34 | Nc1ccc(-c2ccc(F)cc2)cc1NC(=O)c1ccc(N=S2(=O)CCC(F)(F)CC2)cc1 [Compound 63] |  |  |  | IC50 (HDAC2; Table 5): 30 to 300 nM; IC50 (HDAC3; Table 5): > 3000 nM; IC50 (HDAC1; Table 5): < 30 nM
35 | Nc1ccc(-c2ccc(F)cc2)cc1NC(=O)c1ccc(N=S2(=O)CCC(F)(F)C2)cc1 (stereo not drawn) [Compound 65] |  |  |  | IC50 (HDAC2; Table 5): 30 to 300 nM; IC50 (HDAC3; Table 5): > 3000 nM; IC50 (HDAC1; Table 5): < 30 nM
36 | [2H]C([2H])([2H])N1CCS(=O)(=Nc2ccc(C(=O)Nc3cc(-c4ccc(F)cc4)ccc3N)cc2)CC1 [Compound 68] | < 500 | > 5000 | < 500 | IC50 (HDAC2; Table 5): 30 to 300 nM; IC50 (HDAC3; Table 5): > 3000 nM; IC50 (HDAC1; Table 5): < 30 nM
37 | CCN1CCS(=O)(=Nc2ccc(C(=O)Nc3cc(-c4ccc(F)cc4)ccc3N)cc2)CC1 [Compound 69] |  |  |  | IC50 (HDAC2; Table 5): 30 to 300 nM; IC50 (HDAC3; Table 5): > 3000 nM; IC50 (HDAC1; Table 5): < 30 nM
38 | Nc1ccc(-c2ccc(F)cc2)cc1NC(=O)c1ccc(N=S2(=O)CCN(CC3CC3)CC2)cc1 [Compound 71] | < 500 | > 5000 | < 500 | 
39 | CN1CC2(CCS(=O)(=Nc3ccc(C(=O)Nc4cc(-c5ccc(F)cc5)ccc4N)cc3)CC2)C1 [Compound 72] | < 500 | > 5000 | < 500 | IC50 (HDAC2; Table 5): 30 to 300 nM; IC50 (HDAC3; Table 5): > 3000 nM; IC50 (HDAC1; Table 5): < 30 nM
40 | Cc1nn(C)cc1CN1CCS(=O)(=Nc2ccc(C(=O)Nc3cc(-c4ccc(F)cc4)ccc3N)cc2)CC1 [Compound 73] | < 500 | > 5000 | < 500 | IC50 (HDAC2; Table 5): 30 to 300 nM; IC50 (HDAC3; Table 5): > 3000 nM; IC50 (HDAC1; Table 5): < 30 nM
41 | CN1CC2(C1)CS(=O)(=Nc1ccc(C(=O)Nc3cc(-c4cccs4)ccc3N)cc1)C2 [Compound 79] | < 500 | > 5000 | < 500 | 
42 | Nc1ccc(-c2cccs2)cc1NC(=O)c1ccc(N=S2(=O)CCCC2)cc1 [Compound 80] | < 500 | > 5000 | < 500 | 
43 | CN1CCS(=O)(=Nc2ccc(C(=O)Nc3cc(-c4cccs4)ccc3N)cc2)CC1 [Compound 89] | < 500 | > 5000 | < 500 | 
44 | [2H]C([2H])([2H])N1CCS(=O)(=Nc2ccc(C(=O)Nc3cc(-c4cccs4)ccc3N)cc2)CC1 [Compound 90] | < 500 | > 5000 | < 500 | 
45 | CN1CC2(CCS(=O)(=Nc3ccc(C(=O)Nc4cc(-c5cccs5)ccc4N)cc3)CC2)C1 [Compound 91] | < 500 | > 5000 | < 500 | 
46 | Nc1ccc(-c2ccc(F)s2)cc1NC(=O)c1ccc(N=S2(=O)CCC2)cc1 [Compound 92] | < 500 | > 5000 | < 500 | 
47 | Nc1ccc(-c2ccc(F)s2)cc1NC(=O)c1ccc(N=S2(=O)CC3(CCC3)C2)cc1 [Compound 93] | < 500 | > 5000 | < 500 | 
48 | Nc1ccc(-c2ccc(F)s2)cc1NC(=O)c1ccc(N=S2(=O)CC3(CNC3)C2)cc1 [Compound 94] | < 500 | > 5000 | < 500 | 
49 | CN1CC2(C1)CS(=O)(=Nc1ccc(C(=O)Nc3cc(-c4ccc(F)s4)ccc3N)cc1)C2 [Compound 95] | < 500 | > 5000 | < 500 | 
50 | Nc1ccc(-c2ccc(F)s2)cc1NC(=O)c1ccc(N=S2(=O)CCCC2)cc1 [Compound 96] | < 500 | > 5000 | < 500 | 
